Our source for the EC50 values is patent US8796256B2 (Janssen Pharmaceutica NV, priority 2010, dated 2014).

SMILES strings stand for the structures.

Usually EC50 stands for the concentration at which the effect is half-maximal. Low readings indicate greater potency, high ones weaker potency.

The target of the experiment is T1, ERR1 (also known as ERR-α or ERR-1) (Homo sapiens, UniProt P11474).
T1 sequence (P11474 193-421 limits assumed): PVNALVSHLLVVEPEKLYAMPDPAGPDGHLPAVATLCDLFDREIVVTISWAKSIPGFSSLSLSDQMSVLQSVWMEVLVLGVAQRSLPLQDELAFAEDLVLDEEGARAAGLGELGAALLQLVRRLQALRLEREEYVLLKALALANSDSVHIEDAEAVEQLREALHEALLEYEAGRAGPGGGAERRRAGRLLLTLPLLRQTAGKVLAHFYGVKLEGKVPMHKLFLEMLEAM
The experiment is described as follows: TR-FRET assay (disruption of co-activator peptide binding to ERR1 LBD). As to conditions: 6 nM 6His-ERR1LBD, 6 nM GST-SRC-2 peptide; average of 3 independent experiments. The format is biochemical. In outline: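 Homogeneous TR-FRET measuring displacement of GST-hSRC2 co-activator peptide (6 nM) from His-tagged ERR1 LBD (6 nM), detected with α-GST Eu cryptate (30 nM) and α-His-XL665 (7.5 nM). Buffer 25 mM Tris pH 8, 2.5 mM Hepes, 20 mM KCl, 1 mM DTT, 0.05 mg/mL delipidated BSA; equilibration 4-18 h at 25° C. Hyperbolic dose-response fit, mean of 3 experiments.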
Background: Time-resolved FRET reads energy transfer from a long-lived donor to a nearby acceptor.
Molecule `CCN1CC[C@@H](N2C(=O)S/C(=C\c3ccc4c(cnn4Cc4ccc(Cl)cc4C(F)(F)F)c3)C2=O)[C@@H](F)C1` (relative stereo) [Compound 332, (5Z)-5-({1-[4-Chloro-2-(trifluoromethyl)benzyl]-1H-indazol-5-yl}methylidene)-3-[cis-1-ethyl-3-fluoropiperidin-4-yl]-1,3-thiazolidine-2,4-dione] came in with an EC50 of 110 nM.

On to `O=C1S/C(=C\c2ccc3c(cnn3Cc3ccc(Cl)cc3C(F)(F)F)c2)C(=O)N1C[C@@H]1CNCCO1` [Compound 183, (5Z)-5-({1-[4-Chloro-2-(trifluoromethyl)benzyl]-1H-indazol-5-yl}methylidine)-3-[(2S)-morpholin-2-ylmethyl]-1,3-thiazolidine-2,4-dione], for which a half-maximal response (EC50) required 170 nM.

For `NC(=O)CN1CC[C@@H](CN2C(=O)S/C(=C\c3ccc4c(cnn4Cc4ccc(Cl)cc4C(F)(F)F)c3)C2=O)C1` [Compound 299, 2-[(3R)-3-{[(5Z)-5-({1-[4-Chloro-2-(trifluoromethyl)benzyl]-1H-indazol-5-yl}methylidene)-2,4-dioxo-1,3-thiazolidin-3-yl]methyl}pyrrolidin-1-yl]acetamide], the EC50 turned out to be 37 nM.

On to `O=C1S/C(=C\c2ccc3c(c2)nnn3Cc2ccc(Cl)cc2C(F)(F)F)C(=O)N1Cc1c[nH]nn1` [Compound 262, (5Z)-5-({1-[4-Chloro-2-(trifluoromethyl)benzyl]-1H-benzotriazol-5-yl}methylidene)-3-(1H-1,2,3-triazol-4-ylmethyl)-1,3-thiazolidine-2,4-dione], for which the EC50 worked out at 24 nM.

As for `COC(=O)N1CCN(C(=O)CN2C(=O)S/C(=C\c3ccc4c(cnn4Cc4ccc(Cl)cc4C(F)(F)F)c3)C2=O)S1(=O)=O` [Compound 340, Methyl 5-{[(5Z)-5-({1-[4-chloro-2-(trifluoromethyl)benzyl]-1H-indazol-5-yl}methylidene)-2,4-dioxo-1,3-thiazolidin-3-yl]acetyl}-1,2,5-thiadiazolidine-2-carboxylate 1,1-dioxide], the EC50 is 53 nM.

Take `CN1CCC[C@H]1CN1C(=O)S/C(=C\c2ccc3c(cnn3Cc3ccc(C(F)(F)F)cc3C(F)(F)F)c2)C1=O` [Compound 69, (5Z)-5-({1-[2,4-Bis(trifluoromethyl)benzyl]-1H-indazol-5-yl}methylidene)-3-{[(2S)-1-methylpyrrolidin-2-yl]methyl}-1,3-thiazolidine-2,4-dione]: the EC50 came out at 23 nM.

`CC[C@H](N)CN1C(=O)S/C(=C\c2ccc3c(cnn3Cc3ccc(Cl)cc3C(F)(F)F)c2)C1=O` [Compound 154, 3-[(2S)-2-Aminobutyl]-(5Z)-5-({1-[4-chloro-2-(trifluoromethyl)benzyl]-1H-indazol-5-yl}methylidene)-1,3-thiazolidine-2,4-dione] yielded an EC50 of 17 nM.

Take `COCCN1CCN(N2C(=O)S/C(=C\c3ccc4c(cnn4Cc4ccc(Cl)cc4C(F)(F)F)c3)C2=O)CC1` [Compound 352, (5Z)-5-({1-[4-Chloro-2-(trifluoromethyl)benzyl]-1H-indazol-5-yl}methylidene)-3-[4-(2-methoxyethyl)piperazin-1-yl]-1,3-thiazolidine-2,4-dione]: the EC50 stood at 25 nM.

On to `Cc1nn(Cc2ccc(Cl)cc2C(F)(F)F)c2ccc(/C=C3\SC(=O)N(CC(=O)NS(=O)(=O)N(C)C)C3=O)cc12` [Compound 39, 2-[(5Z)-5-({1-[4-Chloro-2-(trifluoromethyl)benzyl]-3-methyl-1H-indazol-5-yl}methylidene)-2,4-dioxo-1,3-thiazolidin-3-yl]-N-(dimethylsulfamoyl)acetamide], for which it took 43 nM to reach a half-maximal effect (EC50).

As to `CCN1CC[C@H](N2C(=O)S/C(=C\c3ccc4c(cnn4Cc4ccc(Cl)cc4C(F)(F)F)c3)C2=O)C1` [Compound 119, (5Z)-5-({1-[4-Chloro-2-(trifluoromethyl)benzyl]-1H-indazol-5-yl}methylidene)-3-[(3S)-1-ethylpyrrolidin-3-yl]-1,3-thiazolidine-2,4-dione], the midpoint of the response, the EC50, lay at 40 nM.

Molecule `CC(C)N(CCO)CCN1C(=O)S/C(=C\c2ccc3c(cnn3Cc3ccc(Cl)cc3C(F)(F)F)c2)C1=O` [Compound 45, (5Z)-5-({1-[4-Chloro-2-(trifluoromethyl)benzyl]-1H-indazol-5-yl}methylidene)-3-{2-[(2-hydroxyethyl)(1-methylethyl)amino]ethyl}-1,3-thiazolidine-2,4-dione] gave an EC50 of 47 nM.

`O=C1S/C(=C\c2ccc3c(cnn3Cc3ccc(Cl)cc3C(F)(F)F)c2)C(=O)N1[C@H]1CCNC[C@@H]1F` [Compound 382, (5Z)-5-({1-[4-Chloro-2-(trifluoromethyl)benzyl]-1H-indazol-5-yl}methylidene)-3-[(3S,4S)-3-fluoropiperidin-4-yl]-1,3-thiazolidine-2,4-dione] returned an EC50 of 11 nM.

As for `CC(=O)NN1C(=O)S/C(=C\c2ccc3c(cnn3Cc3ccc(Cl)cc3C(F)(F)F)c2)C1=O` [Compound 356, N-[(5Z)-5-({1-[4-Chloro-2-(trifluoromethyl)benzyl]-1H-indazol-5-yl}methylidene)-2,4-dioxo-1,3-thiazolidin-3-yl]acetamide], the EC50 amounted to 14 nM.

Molecule `NC(=O)CN1CCC[C@@H]1CN1C(=O)S/C(=C\c2ccc3c(cnn3Cc3ccc(Cl)cc3C(F)(F)F)c2)C1=O` [Compound 298, 2-[(2R)-2-{[(5Z)-5-({1-[4-Chloro-2-(trifluoromethyl)benzyl]-1H-indazol-5-yl}methylidene)-2,4-dioxo-1,3-thiazolidin-3-yl]methyl}pyrrolidin-1-yl]acetamide] yielded an EC50 of 49 nM.

Take `O=C1S/C(=C\c2ccc3c(cnn3Cc3ccc(Cl)cc3C(F)(F)F)c2)C(=O)N1[C@@H]1CCN(CCO)C[C@H]1F` (relative stereo) [Compound 327, (5Z)-5-({1-[4-Chloro-2-(trifluoromethyl)benzyl]-1H-indazol-5-yl}methylidene)-3-[trans-3-fluoro-1-(2-hydroxyethyl)piperidin-4-yl]-1,3-thiazolidine-2,4-dione]: the EC50 was 21 nM.

On to `O=C(O)CN1C(=O)S/C(=C\c2ccc3c(cnn3Cc3ccc(F)cc3C(F)(F)F)c2)C1=O` [Compound 122, [(5Z)-5-({1-[4-Fluoro-2-(trifluoromethyl)benzyl]-1H-indazol-5-yl}methylidene)-2,4-dioxo-1,3-thiazolidin-3-yl]acetic acid], for which the EC50 was found to be 314 nM.

The molecule `CN(CCN1C(=O)S/C(=C\c2ccc3c(cnn3Cc3ccc(Cl)cc3C(F)(F)F)c2)C1=O)C(=O)C(F)(F)F` [Compound 394, N-{2-[(5Z)-5-({1-[4-Chloro-2-(trifluoromethyl)benzyl]-1H-indazol-5-yl}methylidene)-2,4-dioxo-1,3-thiazolidin-3-yl]ethyl}-2,2,2-trifluoro-N-methylacetamide] registered an EC50 of 122 nM.

The molecule `O=C1S/C(=C\c2ccc3c(cnn3Cc3ccc(C(F)(F)F)cc3C(F)(F)F)c2)C(=O)N1C[C@@H]1CNCCO1` [Compound 195, (5Z)-5-({1-[2,4-Bis(trifluoromethyl)benzyl]-1H-indazol-5-yl}methylidene)-3-[(2S)-morpholin-2-ylmethyl]-1,3-thiazolidine-2,4-dione] registered an EC50 of 61 nM.

For `CN(C)CCN1C(=O)S/C(=C\c2ccc3c(ccn3Cc3ccc(C(F)(F)F)cc3C(F)(F)F)c2)C1=O` [Compound 240, (5Z)-5-[(1-{[2,4-Bis(trifluoromethyl)-phenyl]methyl}-1H-indol-5-yl)methylidene]-3-[2-(dimethylamino)ethyl]-1,3-thiazolidine-2,4-dione], the EC50 was determined as 70 nM.

Molecule `CC(=O)NS(=O)(=O)CN1C(=O)S/C(=C\c2ccc3c(cnn3Cc3ccc(C(F)(F)F)cc3C(F)(F)F)c2)C1=O` [Compound 71, N-({[(5Z)-5-({1-[2,4-Bis(trifluoromethyl)benzyl]-1H-indazol-5-yl}methylidene)-2,4-dioxo-1,3-thiazolidin-3-yl]methyl}sulfonyl)acetamide] had an EC50 of 87 nM.

`CCOC(=O)C(Cc1ccccn1)N1C(=O)S/C(=C\c2ccc3c(cnn3Cc3ccc(Cl)cc3C(F)(F)F)c2)C1=O` (stereo not drawn) [Compound 211, Ethyl 2-[(5Z)-5-({1-[4-chloro-2-(trifluoromethyl)benzyl]-1H-indazol-5-yl}methylidene)-2,4-dioxo-1,3-thiazolidin-3-yl]-3-pyridin-2-ylpropanoate] yielded an EC50 of 91 nM.

With `O=C1S/C(=C\c2ccc3c(cnn3Cc3ccc(Cl)cc3C(F)(F)F)c2)C(=O)N1C1(C(=O)O)CCC1` [Compound 235, 1-[(5Z)-5-({1-[4-Chloro-2-(trifluoromethyl)benzyl]-1H-indazol-5-yl}methylidene)-2,4-dioxo-1,3-thiazolidin-3-yl]cyclobutanecarboxylic acid], a half-maximal effect (EC50) was put at 45 nM.

As to `CC(=O)N1CCN(CCN2C(=O)S/C(=C\c3ccc4c(cnn4Cc4ccc(Cl)cc4C(F)(F)F)c3)C2=O)CC1` [Compound 117, (5Z)-3-[2-(4-Acetylpiperazin-1-yl)ethyl]-5-({1-[4-chloro-2-(trifluoromethyl)benzyl]-1H-indazol-5-yl}methylidene)-1,3-thiazolidine-2,4-dione], a half-maximal response (EC50) required 86 nM.

As to `O=C(O)C(Cc1ccccn1)N1C(=O)S/C(=C\c2ccc3c(cnn3Cc3ccc(Cl)cc3C(F)(F)F)c2)C1=O` (stereo not drawn) [Compound 216, 2-[(5Z)-5-({1-[4-Chloro-2-(trifluoromethyl)benzyl]-1H-indazol-5-yl}methylidene)-2,4-dioxo-1,3-thiazolidin-3-yl]-3-pyridin-2-ylpropanoic acid], it took 33 nM to reach a half-maximal effect (EC50).
